US6469028B1, “Synthesis and use of retinoid compounds having negative hormone and/or anatgonist activities” (Allergan, Inc., priority 1995, dated 2002)
Where two headings read alike, the source gives them in different places.

Key:
RARγ = target: T1, RARγ (Homo sapiens, UniProt P13631); assay: Transactivation in CV-1 cells, ΔMTV-TREp-Luc reporter; format: cell-based; parameters: expressed in transfected cells; host or cells: green monkey CV-1 cells; settings: 10^−9 to 10^−6 M, 18 hours
T1 sequence (P13631 1-454): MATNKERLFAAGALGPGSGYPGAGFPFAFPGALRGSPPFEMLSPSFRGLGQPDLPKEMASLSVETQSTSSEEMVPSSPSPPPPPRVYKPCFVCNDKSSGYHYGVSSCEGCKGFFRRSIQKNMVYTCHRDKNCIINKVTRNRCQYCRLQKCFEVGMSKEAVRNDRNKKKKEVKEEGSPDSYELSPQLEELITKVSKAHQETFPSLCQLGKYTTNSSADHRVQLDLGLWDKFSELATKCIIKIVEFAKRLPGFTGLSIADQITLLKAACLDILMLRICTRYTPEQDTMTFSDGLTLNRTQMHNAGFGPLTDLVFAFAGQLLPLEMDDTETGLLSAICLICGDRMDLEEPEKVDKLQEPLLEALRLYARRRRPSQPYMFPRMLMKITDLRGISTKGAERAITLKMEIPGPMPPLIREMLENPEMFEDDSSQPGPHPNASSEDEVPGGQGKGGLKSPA

[1] = tested on: MRP-8 expression in primary foreskin keratinocytes; assay: Example 20: MRP-8 expression in keratinocytes (RT-PCR); format: cell-based, human; settings: AGN 191183 10^−7 M or AGN 193109 10^−6 M, 3 days
Source text: Primary foreskin keratinocytes were isolated according to the procedure described by Nagpal et al. in J. Biol. Chem. 270:923 (1995) and cultured in keratinocyte growth medium (KGM) that was purchased from Clonetics. […] The mRNA was reverse transcribed into cDNA which then served as the template in a PCR amplification protocol using primers specific for either the glyceraldehyde phosphate dehydrogenase (GAPDH) housekeeping gene or MRP-8. The GAPDH primers had the sequences [NT] ID NO:6) and [NT] ID NO:7). The MRP-8 primers had the sequences [NT] ID NO:8) and [NT] ID NO:9). An aliquot from the MRP-8 amplification reaction (10 μl) was removed after every cycle of PCR amplification starting from 12 cycles and ending at 21 cycles. Similarly, an aliquot of the GAPDH amplification reaction was removed after every PCR cycle starting at 15 cycles and ending at 24 cycles. […] The staining intensity of the amplification products served as a quantitative measure of the amount of starting MRNA specific for the given primer set.

RARα [2] = target: T2, RARα (Homo sapiens, UniProt P10276); assay: [3H]-ATRA displacement assay, baculovirus expressed receptor; format: binding; parameters: made in house; host or cells: baculovirus expression system
T2 sequence (P10276 1-462): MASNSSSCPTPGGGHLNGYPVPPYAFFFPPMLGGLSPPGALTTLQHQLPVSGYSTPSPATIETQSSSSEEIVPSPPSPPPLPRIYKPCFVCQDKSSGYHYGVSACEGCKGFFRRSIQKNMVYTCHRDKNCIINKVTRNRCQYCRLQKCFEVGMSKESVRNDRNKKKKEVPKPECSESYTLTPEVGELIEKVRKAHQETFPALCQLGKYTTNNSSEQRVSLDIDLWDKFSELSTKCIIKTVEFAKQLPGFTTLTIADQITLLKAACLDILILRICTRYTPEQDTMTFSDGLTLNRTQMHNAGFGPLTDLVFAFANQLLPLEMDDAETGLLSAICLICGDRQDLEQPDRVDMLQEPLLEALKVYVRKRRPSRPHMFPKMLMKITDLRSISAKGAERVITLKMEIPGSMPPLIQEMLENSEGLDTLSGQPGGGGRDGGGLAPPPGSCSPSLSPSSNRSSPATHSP

[3] = tested on: 1,25-dihydroxyvitamin D3-dependent gene expression; assay: Example 14: 1,25-dihydroxyvitamin D3 transactivation, MTV-VDRE-Luc in HeLa cells; format: cell-based; settings: AGN 193109 10-100 nM coadministered
Method: Hela cells were transfected using the cationic liposome-mediated transfection procedure described by Feigner et al. in Proc. Natl. Acad. Sci. USA 84:7413 (1987). 5×10^4 cells were plated in 12-well multiwell plates and grown in DMEM supplemented with 10% FBS. Cells were cotransfected in serum-free medium using 2 μg/well of LIPOFECTAMINE reagent (Life Technologies, Inc.) with 0.7 μg of the reporter plasmid MTV-VDRE-Luc, containing two copies of the 1,25-dihydroxyvitamin D3 response element [NT] ID NO:4) from the mouse osteopontin gene (Ferrara et al. J. Biol. Chem. 269:2971 (1994)) ligated into the reporter plasmid ΔMTV-Luc (Heyman et al. in Cell 68:397 (1992)), and 0.3 μg of the plasmid pGEM3Z (Pharmacia, Inc.) as carrier DNA to bring the final concentration of DNA to 1.0 μg per well. After six hours of transfection, cells were fed with growth medium containing charcoal extracted FBS at a final concentration of 10%. […] Luciferase activity was measured as described above. This experimental system allowed a convenient method of monitoring and quantitating 1,25-dihydroxyvitamin D3-dependent gene expression.

RARα [4] = target: T2, RARα; assay: Example 7: inhibition of RAR transactivation by ATRA, CV-1 cells; format: cell-based; parameters: host or cells: TNT-coupled reticulocyte lysate in vitro transcription-translation; settings: equal doses of AGN 193109 and ATRA (10 nM ATRA)
Method: Eukaryotic expression vectors pRShRAR-α (Giguere et al. Nature 330:624 (1987)), pRShRAR-β (Benbrook et al. Nature 333:669 (1988)) and pRShRAR-γ (Ishikawa et al. Mol. Endocrinol. 4:837 (1990)) were cotransfected with the Δ-MTV-Luc reporter plasmid described by Hollenberg et al. (Cell 55:899.(1988)). […] Calcium phosphate transfections were carried out exactly as described in Example 6. […] Cell lysates and luciferase activity measurements were also performed as in Example 6.

Cc1ccc(C2=CCC(C)(C)c3ccc(C#Cc4ccc(C(=O)O)cc4)cc32)cc1 [Compound 60, 4-[(5,6-dihydro-5,5-dimethyl-8-(4-methylphenyl)-2-naphthalenyl)ethynyl]benzoic acid]
EC50 (nM) RAR-γ (RARγ): No Activity | MRP-8 mRNA expression [1]: repressed MRP8 expression | Kd (RARα [2]; Table 11, read-out: Kd (nM) RAR-α): 2 nM | Kd (RARα [2]; as stated in Example 8, read-out: Kd at RAR-α): 10 nM | increase in activity of 1,25-dihydroxyvitamin D3 [3]: approximately 10 fold | inhibition of luciferase activity relative to ATRA alone (RARα [4]): greater than 50%
